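The compound was tested at five concentrations on cells cultured in 96-well plates, with a 48-hour exposure period. At the GI50, growth is halved.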 Calls of active or inactive are those of the source. No stated cut-off is given here; in the data, active = GI50 up to about 1.1 µM and inactive = higher.
Tests used:
Assay in all cases: inhibition of tumour cell growth, NCI panel, 48 h
SW-620 = system: SW-620
NCI-H226 = system: NCI-H226
COLO 205 = system: COLO 205
HOP-92 = system: HOP-92
NCI-H23 = system: NCI-H23
RPMI-8226 = system: RPMI-8226
A549 = system: A549
IGROV-1 = system: IGROV-1
CAKI-1 = system: CAKI-1
ACHN = system: ACHN
NCI-H522 = system: NCI-H522
RXF 393 = system: RXF 393
M14 = system: M14
U-251 = system: U-251
SF-539 = system: SF-539
LOX IMVI = system: LOX IMVI
HOP-62 = system: HOP-62
A498 = system: A498
SK-MEL-5 = system: SK-MEL-5
OVCAR-8 = system: OVCAR-8

SMILES	GI50 (SW-620)	GI50 (NCI-H226)	GI50 (COLO 205)	GI50 (HOP-92)	GI50 (NCI-H23)	GI50 (RPMI-8226)	GI50 (A549)	GI50 (IGROV-1)	GI50 (CAKI-1)	GI50 (ACHN)	GI50 (NCI-H522)	GI50 (RXF 393)	GI50 (M14)	GI50 (U-251)	GI50 (SF-539)	GI50 (LOX IMVI)	GI50 (HOP-62)	GI50 (A498)	GI50 (SK-MEL-5)	GI50 (OVCAR-8)
Cc1c(N)nc([C@H](CC(N)=O)NC[C@H](N)C(N)=O)nc1C(=O)N[C@H](C(=O)N[C@H](C)[C@@H](O)CC(=O)N[C@H](C(=O)NC(O[C@@H]1O[C@@H](C)[C@@H](N)[C@@H](O)[C@H]1O)C(O)c1nc(-c2nc(C(=O)NCCCCN)cs2)cs1)[C@@H](C)O)[C@@H](O[C@@H]1O[C@@H](CO)[C@@H](O)[C@H](O)[C@@H]1O[C@H]1O[C@H](CO)[C@@H](O)[C@H](OC(N)=O)[C@@H]1O)c1c[nH]cn1 (stereo partly specified)	> 50 µM (inactive)	0.216 µM (active)	> 50 µM (inactive)	12.9 µM (inactive)	5.73 µM (inactive)	> 50 µM (inactive)	18.7 µM (inactive)	16 µM (inactive)	5.85 µM (inactive)	0.223 µM (active)	11.2 µM (inactive)	7.67 µM (inactive)	> 36.9 µM (inactive)	> 50 µM (inactive)	0.311 µM (active)	2.89 µM (inactive)	1.98 µM (inactive)	> 50 µM (inactive)	12.6 µM (inactive)	12.6 µM (inactive)
NCCNCc1c2ccccc2c(CNCCN)c2ccccc12	11.1 µM (inactive)	–	8.17 µM (inactive)	22.2 µM (inactive)	13.1 µM (inactive)	–	12.1 µM (inactive)	32.3 µM (inactive)	–	34.8 µM (inactive)	8.13 µM (inactive)	15.7 µM (inactive)	16.3 µM (inactive)	22 µM (inactive)	12.2 µM (inactive)	–	24.3 µM (inactive)	22.3 µM (inactive)	26.4 µM (inactive)	13.2 µM (inactive)
CC(C)(C)c1ccc2c(c1)OP1(Oc3cccc4cccnc34)(O2)Oc2ccc(C(C)(C)C)cc2O1	2.25 µM (inactive)	8.49 µM (inactive)	2.85 µM (inactive)	4.61 µM (inactive)	3.05 µM (inactive)	0.597 µM (active)	5.58 µM (inactive)	3.88 µM (inactive)	12.2 µM (inactive)	–	4.9 µM (inactive)	3.37 µM (inactive)	–	7 µM (inactive)	10.4 µM (inactive)	3.68 µM (inactive)	22.8 µM (inactive)	9.31 µM (inactive)	3.27 µM (inactive)	3.92 µM (inactive)
O=[N+]([O-])/C(C(Cl)=C(Cl)Cl)=C1\Nc2ccccc2O1	> 100 µM (inactive)	27.5 µM (inactive)	60.1 µM (inactive)	12 µM (inactive)	67.3 µM (inactive)	24.3 µM (inactive)	37.7 µM (inactive)	43.7 µM (inactive)	> 100 µM (inactive)	35.8 µM (inactive)	27.2 µM (inactive)	> 100 µM (inactive)	> 100 µM (inactive)	> 100 µM (inactive)	19.9 µM (inactive)	> 100 µM (inactive)	47.4 µM (inactive)	> 100 µM (inactive)	> 100 µM (inactive)	25.2 µM (inactive)
CN(C)CCNC(=O)c1ccc(NCCCN(C)CCCNc2ccc3c(=O)n(CCN(C)C)c(=O)n4c5ccccc5c(=O)c2c34)c2c(O)c3ccccc3nc12	< 0.01 µM (active)	< 0.0214 µM (active)	< 0.0108 µM (active)	0.114 µM (active)	< 0.0146 µM (active)	< 0.01 µM (active)	< 0.01 µM (active)	< 0.01 µM (active)	0.0258 µM (active)	< 0.01 µM (active)	0.0102 µM (active)	0.075 µM (active)	0.164 µM (active)	< 0.01 µM (active)	0.138 µM (active)	< 0.01 µM (active)	< 0.01 µM (active)	0.0759 µM (active)	0.0617 µM (active)	< 0.01 µM (active)
CSc1nc(NC2OCC(O)C(O)C2O)c(N)c(=O)n1C (stereo unspecified)	> 100 µM (inactive)	> 100 µM (inactive)	> 100 µM (inactive)	> 100 µM (inactive)	> 100 µM (inactive)	> 100 µM (inactive)	> 100 µM (inactive)	> 100 µM (inactive)	–	–	> 100 µM (inactive)	> 100 µM (inactive)	–	> 100 µM (inactive)	75.2 µM (inactive)	> 100 µM (inactive)	> 100 µM (inactive)	> 100 µM (inactive)	> 100 µM (inactive)	> 100 µM (inactive)
CC(C)(C)c1nc2c(o1)/C(=N\c1ccccc1)c1ccccc1C2=O	4.47 µM (inactive)	9.42 µM (inactive)	32.3 µM (inactive)	4.69 µM (inactive)	1.44 µM (inactive)	3.94 µM (inactive)	7.6 µM (inactive)	6.87 µM (inactive)	12 µM (inactive)	4.69 µM (inactive)	2.91 µM (inactive)	4.91 µM (inactive)	2.33 µM (inactive)	3.85 µM (inactive)	2.99 µM (inactive)	0.603 µM (active)	17.3 µM (inactive)	17.5 µM (inactive)	1.42 µM (inactive)	2.72 µM (inactive)
C=C1C(O)C2(O)OCC34C(CC5C(C)=CC(=O)C(O)C5(C)C23)OC(=O)C(OC(=O)C/C=C/CCCCCCCC)C14 (stereo unspecified)	0.0217 µM (active)	0.02 µM (active)	0.0241 µM (active)	0.02 µM (active)	0.02 µM (active)	0.02 µM (active)	0.0249 µM (active)	0.02 µM (active)	0.0449 µM (active)	–	0.02 µM (active)	0.0223 µM (active)	–	0.02 µM (active)	0.0208 µM (active)	0.0237 µM (active)	0.0233 µM (active)	0.0254 µM (active)	–	0.02 µM (active)
Nc1nc(Cl)cc(NCCCCO)n1	> 100 µM (inactive)	> 100 µM (inactive)	> 100 µM (inactive)	> 100 µM (inactive)	> 100 µM (inactive)	> 100 µM (inactive)	> 100 µM (inactive)	> 100 µM (inactive)	–	> 100 µM (inactive)	–	> 100 µM (inactive)	> 10 µM (inactive)	> 100 µM (inactive)	> 100 µM (inactive)	> 100 µM (inactive)	> 10 µM (inactive)	> 100 µM (inactive)	> 100 µM (inactive)	> 100 µM (inactive)
O=C1C[C@H](c2ccccc2)C2(C(=O)c3ccccc3C2=O)[C@H](c2ccccc2)C1	–	> 100 µM (inactive)	88.7 µM (inactive)	32.2 µM (inactive)	> 100 µM (inactive)	> 100 µM (inactive)	–	9.08 µM (inactive)	> 100 µM (inactive)	–	91 µM (inactive)	12.1 µM (inactive)	> 100 µM (inactive)	> 100 µM (inactive)	–	–	24.3 µM (inactive)	> 100 µM (inactive)	63.1 µM (inactive)	> 100 µM (inactive)
CCOC(=O)c1sc2nc(SC)nc3c2c1N=CN3c1ccccc1Cl	> 100 µM (inactive)	> 100 µM (inactive)	> 100 µM (inactive)	22.6 µM (inactive)	92.3 µM (inactive)	> 100 µM (inactive)	71.3 µM (inactive)	68.1 µM (inactive)	26.2 µM (inactive)	19.4 µM (inactive)	20.5 µM (inactive)	18.1 µM (inactive)	62.1 µM (inactive)	21.3 µM (inactive)	–	> 100 µM (inactive)	6.98 µM (inactive)	10.1 µM (inactive)	52 µM (inactive)	52.6 µM (inactive)
Cc1[nH]c(-c2ccccc2)c(O)c1C(=O)OC1CC(C)CCC1C(C)C (stereo unspecified)	15.7 µM (inactive)	16.9 µM (inactive)	14.8 µM (inactive)	17.6 µM (inactive)	13.4 µM (inactive)	15.3 µM (inactive)	13.4 µM (inactive)	15.6 µM (inactive)	17.7 µM (inactive)	16.4 µM (inactive)	13.3 µM (inactive)	11.7 µM (inactive)	15.6 µM (inactive)	15.5 µM (inactive)	16.2 µM (inactive)	–	15.3 µM (inactive)	18.6 µM (inactive)	16.6 µM (inactive)	16 µM (inactive)
O=C1Nc2ccc(Br)cc2/C1=N/c1ccc(Cl)cc1	6.56 µM (inactive)	23.4 µM (inactive)	1.78 µM (inactive)	37.3 µM (inactive)	30.2 µM (inactive)	4.39 µM (inactive)	25.4 µM (inactive)	–	7.1 µM (inactive)	13.4 µM (inactive)	7.66 µM (inactive)	18.5 µM (inactive)	20.7 µM (inactive)	23.8 µM (inactive)	3.58 µM (inactive)	0.521 µM (active)	21.7 µM (inactive)	> 100 µM (inactive)	4.15 µM (inactive)	11.7 µM (inactive)
COC(C[C@H]1CCCC[C@]1(O)/C(=C\CO[Si](C(C)C)(C(C)C)C(C)C)Sc1ccccc1)OC	–	23.2 µM (inactive)	20.9 µM (inactive)	20.5 µM (inactive)	25.8 µM (inactive)	15.5 µM (inactive)	28.6 µM (inactive)	52.7 µM (inactive)	32.4 µM (inactive)	> 100 µM (inactive)	15.8 µM (inactive)	16.1 µM (inactive)	31.6 µM (inactive)	22.1 µM (inactive)	–	18 µM (inactive)	50 µM (inactive)	> 100 µM (inactive)	30.3 µM (inactive)	49.8 µM (inactive)

From ChEMBL document CHEMBL1201862, “PubChem BioAssay data set” (2004)
